Experimental data taken from US8933147B2, “Anti-microbial dental impression material” (3M Innovative Properties Company, priority 2005, dated 2015).

How the values were obtained:
[1] = tested on: Streptococcus mutans (DSM 20523); assay: Laboratory model of impression taking: material set against filters loaded with Streptococcus mutans, rinsed, remaining growth on agar; assay type: cell-based; set-up: key: confluent growth, +++; many colonies, ++; few colonies, +; no growth, −; details: Impregum Garant L DuoSoft
Description: (§1) A laboratory system was worked out that models the clinical procedure of impression taking with concomitant contamination of the material, the removal of the material from the mouth and the subsequent cleaning by a brief rinse under tap water. The remaining contamination was determined by microbiological methods:
(§2) Impression material was applied into sterile Petri dishes. Filters loaded with Streptococcus mutans (DSM 20523) or stimulated human saliva were contacted with the material during setting. A Strep. mutans concentration of approx. 5E9 CFU/ml was chosen which is similar to the microorganismsl number found salviva. After setting, the material was removed from the contaminated filter and briefly rinsed with sterile water.
(§3) Remaining microorganisms were transferred to agar plates and the plates were incubated anaerobically at 37° C. to allow for growth of surviving microorganisms. Microorganisms growth was recorded as confluent growth, +++; many colonies, ++; few colonies, +; no growth, −.

[2] = tested on: salivary microorganisms; assay: Laboratory model of impression taking: material set against filters loaded with stimulated human saliva, rinsed, remaining growth on agar; assay type: cell-based; set-up: key: confluent growth, +++; many colonies, ++; few colonies, +; no growth, −; details: Impregum Garant L DuoSoft
Description: as §1, §2, §3

[3] = Chlorhexidine 1.5 % in cured paste
[4] = Chlorhexidine 3.6 % in cured paste

## chlorhexidine diacetate hydrate [CHX diacetate hydrate]
[1]; Chlorhexidine 0.6-0.7 % in cured paste
  Growth of S. mutans (initial conc. 5E9 CFU/ml): −
[1]; Chlorhexidine 0.8 % in cured paste
  Growth of S. mutans (initial conc. 5E9 CFU/ml): −
[1]; [3]
  Growth of S. mutans (initial conc. 5E9 CFU/ml): −
[1]; [4]
  Growth of S. mutans (initial conc. 5E9 CFU/ml): −
[1]; Chlorhexidine <0.2 % in cured paste
  Growth of S. mutans (initial conc. 5E9 CFU/ml): +++
[2]; [3]
  Growth of salivary microorganisms (initial conc. 5E7 CFU/ml): −
[2]; [4]
  Growth of salivary microorganisms (initial conc. 5E7 CFU/ml): −
